Measurements: patent US6011070A, “Slow-onset, long-lasting dopamine reuptake blockers” (priority 1997, dated 2000)
“Also recorded” adds a separate entry of the source. Where two headings read alike, the source gives them in different places.

Key:
male Swiss-Webster mice [1] = assay: Time course study of locomotor stimulation over 8 hours (Example 6); assay type: in vivo, Swiss-Webster mice (Hsd:ND4); settings: for ED50: Mus musculus, ip, read-out: ED50 (dose producing one half maximal stimulant activity); for Maximum effect (horizontal activity) / Dose of maximum effect: logistic peak fit
Procedure: A dose response study of induced locomotor stimulation was conducted according to the following procedure. The study was conducted using 16 Digiscan locomotor activity testing chambers (40.5×40.5×30.5 cm) housed in sets of two, within sound-attenuating chambers. A panel of infrared beams (16 beams) and corresponding photodetectors were located in the horizontal direction along the sides of each activity chamber. A 7.5-W incandescent light above each chamber provided dim illumination. Fans provided an 80-dB ambient noise level within the chamber. Separate groups of 8 non-habituated male Swiss-Webster mice (Hsd:ND4, aged 2-3 months) were injected via the intraperitoneal (IP) route with either vehicle (0.9% saline) or test compound (5, 10, 20 or 40 mg/kg), immediately prior to locomotor activity testing. In all studies, horizontal activity (interruption of photocell beams) was measured for 8 hours within 10 minute periods, beginning at […]) two hours after lights on). Testing was conducted with one mouse per activity chamber.
Stimulant effects of 10, 20 and 40 mg/kg occurred within 10 minutes following injection and lasted up to 3 hours. […] Using TableCurve 2D v2.03 software (Jandel Scientific), the mean average horizontal activity counts for this 30-min period were fit to a 3-parameter logistic peak function of log10 dose (with the constant set to 3172, the mean of the saline-treated group), and the maximum was estimated from the resulting curve (maximum=6059 counts/10 min at 18.3 mg/kg).
Separate groups of eight mice were injected with either vehicle (deionized water) or Compound 2 (1, 3, 10 pr 30 mg/kg) immediately prior to locomotor activity testing.
Stimulant effects occurred within 40 to 70 minutes following injection and lasted 4 to ≥7 hours. The time period 280-310 min was selected for analysis of dose-response data because this was the time period in which maximal stimulant effects first appeared as a function of dose. Using TableCurve 2D v2.03 software (Jandel Scientific), the mean average horizontal activity counts/10 min for this period were fit to a 3-parameter logistic peak function of log10 dose (with the constant set to 399, the mean of the vehicle-treated group), and the maximum effect estimated from the resulting curve (maximum=4581 counts/10 min at 12.9 mg/kg).

male Swiss-Webster mice [2] = assay: Dose response study of induced locomotor stimulation (Digiscan), 1 h session (Example 2); assay type: in vivo, Swiss-Webster mice (Hsd:ND4); settings: IP; for Maximal Effect Relative to Cocaine / ED50: locomotor activity; for ED50: Mus musculus, 30-60 min period
Procedure: A dose response study of induced locomotor stimulation was conducted according to the following procedure. The study was conducted using a 16 or 32 Digiscan locomotor activity testing chambers (40.5×40.5×30.5 cm) housed in sets of two, within sound-attenuating chambers. A panel of infrared beams (16 beams) and corresponding photodetectors were located in the horizontal direction along the sides of each activity chamber. A 15-W incandescent light above each chamber provided dim illumination. Fans provided an 80-dB ambient noise level within the chamber. Separate groups of 8 non-habituated male Swiss-Webster mice (Hsd:ND4, aged 2-3 months) were injected via the intraperitoneal (IP) route with either vehicle (deionized water for Compounds 1-4, carboxymethylcellulose for Compound 6 or methyl cellulose for Compound 7)) or test compound (1, 2.5, 5, 10, 25 or 50 mg/kg for Compound 3; 1, 3, 10 and 30 mg/kg for Compounds 1, 2 and 4; 3, 10, 30 or 100 mg/kg for Compound 6; and 1, 3, 10, 30 and 100 mg/kg for Compound 7). Compounds 1-4 were injected immediately prior to locomotor activity testing. […] In all studies, horizontal activity (interruption of photocell beams) was measured for 1 hour within 10 minute periods. Testing was conducted with one mouse per activity chamber.
FIGS. 1, 3, 5 and 7 show average horizontal activity counts/10 minutes as a function of time, immediately following injection of Compound 1, Compound 2, Compound 3 and Compound 4, respectively. FIGS. 13 and 15 show average horizontal activity counts/10 minutes as a function of time, beginning twenty minutes following injection of Compound 6 and Compound 7, respectively. The period 30-60 minutes was selected for analysis of dose-response data. Using TableCurve 2D v2.03 software (Jandel Scientific), the mean average horizontal activity counts/10 minutes for this period were fit to a 3-parameter logistic peak function of log10 dose (with the constant set to 1989, the mean of the vehicle-treated group), and the maximum effect estimated from the resulting curve. […] FIGS. 2, 4, 6, 8, 14 and 16 show average horizontal activity counts/10 minutes over 30 minutes versus the amount administered of Compound 1, Compound 2, Compound 3, Compound 4, Compound 6 and Compound 7, respectively.

[3] = tested on: cocaine-induced stimulation; assay: Interaction study: block of cocaine-induced locomotor stimulation (20 mg/kg cocaine IP) (Example 3); assay type: in vivo, Swiss-Webster mice; settings: for ED50: Mus musculus, ip, read-out: AD50 (dose attenuating cocaine-induced stimulation by 50%)
Procedure: This interaction study was conducted using 16 Digiscan locomotor activity testing chambers as described in Example 2. […] When testing the effects of Compounds 6 and 7, mice were placed in the Digiscan apparatus twenty minutes after the injection of the test compound or vehicle.
FIGS. 9, 17 and 19 show average horizontal activity counts for the different treatment groups as a function of time. […] FIGS. 10, 18 and 20 show average horizontal activity counts/10 min for different treatment groups as a function of dose.
A one-way analysis of variance conducted on log10 horizontal activity counts for the selected time period indicated a significant overall effect for the treatment groups; F(4,35)=[…] for Compound 2; F(5,42)=[…] for Compound 6; and F((5,42)=8.96 p<0.5). […] All ps<0.05 are denoted in FIGS. 10, 18 and 20 with an asterisk.

squirrel monkeys = assay: Locomotor response in primates (Example 5); assay type: in vivo
[4] = read-out: ED50 (dose producing 1/2 maximal stimulant activity)

## COC(=O)[C@H]1[C@@H](OC(=O)c2ccccc2)C[C@@H]2CC[C@H]1N2C [Cocaine, reference compound]
Male rhesus monkeys; 0.0032 mg/kg/inj cocaine, monkey 89B013
  Control rate of responding maintained by cocaine (drug component): 0.51 responses/sec
Male rhesus monkeys; 0.0032 mg/kg/inj cocaine, monkey 89B056
  Control rate of responding maintained by cocaine (drug component): 0.79 responses/sec
Male rhesus monkeys; 0.0032 mg/kg/inj cocaine, monkey J3A
  Control rate of responding maintained by cocaine (drug component): 0.57 responses/sec
Male rhesus monkeys; 0.01 mg/kg/inj cocaine, monkey WH8
  Control rate of responding maintained by cocaine (drug component): 0.45 responses/sec
Male rhesus monkeys; control conditions, monkey WH8
  Unit dose of cocaine maintaining maximal rates of self-administration: 0.01 mg/kg/inj
Male rhesus monkeys; control conditions, monkeys 89B056 and J3A
  Unit dose of cocaine maintaining maximal rates of self-administration: 0.0032 mg/kg/inj
Male rhesus monkeys; control conditions, no pretreatment
  Shape of dose-effect curve for cocaine self-administration: inverted-U shape
Male Swiss-Webster mice [1]; 0.5 h
  ED50: 8.8 mg/kg
Male Swiss-Webster mice [1]; cocaine 10, 20 and 40 mg/kg IP
  Duration of stimulant effects: up to 3 hours
  Onset of stimulant effects following injection: ≤ 10 min
Male Swiss-Webster mice [1]; cocaine, 0-30 min, at 18.3 mg/kg
  Maximum effect (horizontal activity): 6059 counts/10 min
Male Swiss-Webster mice [1]; cocaine, 0-30 min
  Dose of maximum effect: 18.3 mg/kg
Male Swiss-Webster mice [1]; cocaine, doses from 10 to 40 mg/kg IP
  Stimulation of locomotor activity: time-dependent stimulation of locomotor activity
Male Swiss-Webster mice [1]; first minutes following 20 mg/kg cocaine
  Period of maximal stimulant effects: ≤ 30 min

## CCCN(C)C1CC(c2ccc(Cl)c(Cl)c2)c2ccccc21 (centres unmarked) [Compound 2]
Male Swiss-Webster mice [2]
  Maximal Effect Relative to Cocaine: 0.51
Male Swiss-Webster mice [2]; [4]
  ED50: 5.65 mg/kg
Male Swiss-Webster mice [1]; Compound 2
  Period of maximal stimulant effects: 280 to 310 min
Male Swiss-Webster mice [1]; Compound 2, 3 to 30 mg/kg
  Duration of stimulant effects: UP TO SEVEN
Male Swiss-Webster mice [1]; Compound 2, 280-310 min
  Maximal effect/cocaine maximal effect ratio (ME/CME): 1.4
  Dose of maximum effect: 12.9 mg/kg
Male Swiss-Webster mice [1]; Compound 2, 280-310 min, at 12.9 mg/kg
  Maximum effect (horizontal activity): 4581 counts/10 min
Male Swiss-Webster mice [1]; Compound 2, doses from 3 to 30 mg/kg
  Stimulation of locomotor activity: time-dependent stimulation of locomotor activity
Male Swiss-Webster mice [1]; 310 min, Compound 2, 280-310 min, 1 to 10 mg/kg ascending portion
  ED50: 3.3 mg/kg
[3]; 20 mg/kg cocaine IP
  Effect on cocaine-induced locomotor stimulation: antagonized the stimulant effect of cocaine; also recorded: block cocaine induced locomotor activity
[3]; 20 mg/kg cocaine IP, 0-30 min, p<0.05
  Dose with significant difference against the cocaine group (planned comparisons): 30 mg/kg
[3]
  ED50: 13.8 mg/kg

## CCN(C)C1CC(c2ccc(Cl)c(Cl)c2)c2ccccc21 (centres unmarked) [Compound 3]
Male Swiss-Webster mice [2]
  Maximal Effect Relative to Cocaine: 0.93
Male Swiss-Webster mice [2]; [4]
  ED50: 10.8 mg/kg

## CCNC1CC(c2ccc(Cl)c(Cl)c2)c2ccccc21 (centres unmarked) [Compound 4]
Male Swiss-Webster mice [2]
  Maximal Effect Relative to Cocaine: 1.07
Male Swiss-Webster mice [2]; [4]
  ED50: 3.9 mg/kg

## CNC1CC(c2ccc(Cl)c(Cl)c2)c2ccccc21 (centres unmarked) [Compound 5]
Squirrel monkeys; 0.3 mg/kg Compound 5
  Duration of stimulated locomotor activity / increased response rate: two to four
Squirrel monkeys; 0.3 mg/kg Compound 5, Day 1, Monkey 1 (control 0.74)
  Number of Responses/Second: 1.29 responses/second
Squirrel monkeys; 0.3 mg/kg Compound 5, Day 1, Monkey 2 (control 0.72)
  Number of Responses/Second: 0.87 responses/second
Squirrel monkeys; 0.3 mg/kg Compound 5, Day 1, Monkey 3 (control 0.92)
  Number of Responses/Second: 1.11 responses/second
Squirrel monkeys; 0.3 mg/kg Compound 5, Day 2, Monkey 1 (control 0.74)
  Number of Responses/Second: 0.99 responses/second
Squirrel monkeys; 0.3 mg/kg Compound 5, Day 2, Monkey 2 (control 0.72)
  Number of Responses/Second: 1.18 responses/second
Squirrel monkeys; 0.3 mg/kg Compound 5, Day 2, Monkey 3 (control 0.92)
  Number of Responses/Second: 1.28 responses/second
Squirrel monkeys; 0.3 mg/kg Compound 5, Day 3, Monkey 1 (control 0.74)
  Number of Responses/Second: 0.75 responses/second
Squirrel monkeys; 0.3 mg/kg Compound 5, Day 3, Monkey 2 (control 0.72)
  Number of Responses/Second: 0.88 responses/second
Squirrel monkeys; 0.3 mg/kg Compound 5, Day 3, Monkey 3 (control 0.92)
  Number of Responses/Second: 1.13 responses/second
Squirrel monkeys; 0.3 mg/kg Compound 5, Day 4, Monkey 1 (control 0.74)
  Number of Responses/Second: 0.79 responses/second
Squirrel monkeys; 0.3 mg/kg Compound 5, Day 4, Monkey 2 (control 0.72)
  Number of Responses/Second: 0.74 responses/second
Squirrel monkeys; 0.3 mg/kg Compound 5, Day 4, Monkey 3 (control 0.92)
  Number of Responses/Second: 1.01 responses/second

## CC(C)(C)NC1CC(c2ccc(Cl)c(Cl)c2)c2ccccc21 (centres unmarked) [Compound 6]
Male Swiss-Webster mice [2]; [4]
  ED50: 506 mg/kg
[3]; 20 mg/kg cocaine IP
  Effect on cocaine-induced locomotor stimulation: antagonized the stimulant effect of cocaine
[3]
  ED50: 23.6 mg/kg

## CN(C1CC(c2ccc(Cl)c(Cl)c2)c2ccccc21)C(C)(C)C (centres unmarked) [Compound 7]
Male Swiss-Webster mice [2]
  Effect on locomotor activity: inhibited locomotor activity
Male Swiss-Webster mice [2]; read-out: ID50 (dose producing 1/2 maximal inhibitory activity)
  ED50: 184 mg/kg
[3]; 20 mg/kg cocaine IP
  Effect on cocaine-induced locomotor stimulation: antagonized the stimulant effect of cocaine; also recorded: block cocaine induced locomotor activity
[3]
  ED50: 42.5 mg/kg
